Measured values: patent US12006328B2, “Thieno[2,3-d]pyrimidin-4-one derivatives as NMDAR modulators and uses related thereto” (Emory University, priority 2014, dated 2024)

Key:
Format in all cases: cell-based
[1] = molecular target: GluN2C-containing NMDA receptors (Homo sapiens, UniProt Q14957); test: Two-electrode voltage-clamp recordings from Xenopus laevis oocytes, GluN2C; settings: for I10 μM/ICONTROL (mean ± SEM, %) Glu N2C: 10 μM test compound with glutamate 100 μM and glycine 30 μM, Tables 1-5; for I10 μM/ICONTROL (mean ± SEM, %) Glu N2C / maximal potentiation Glu N2C: percent of response without compound; for EC50 / IC50: glutamate 100 μM, glycine 30 μM, Hill fit; for EC50: read-out: EC50 Glu N2C; for IC50: read-out: IC50 Glu N2C
Chain of GluN2C-containing NMDA receptors (Q14957 20-1233, other chains not shown): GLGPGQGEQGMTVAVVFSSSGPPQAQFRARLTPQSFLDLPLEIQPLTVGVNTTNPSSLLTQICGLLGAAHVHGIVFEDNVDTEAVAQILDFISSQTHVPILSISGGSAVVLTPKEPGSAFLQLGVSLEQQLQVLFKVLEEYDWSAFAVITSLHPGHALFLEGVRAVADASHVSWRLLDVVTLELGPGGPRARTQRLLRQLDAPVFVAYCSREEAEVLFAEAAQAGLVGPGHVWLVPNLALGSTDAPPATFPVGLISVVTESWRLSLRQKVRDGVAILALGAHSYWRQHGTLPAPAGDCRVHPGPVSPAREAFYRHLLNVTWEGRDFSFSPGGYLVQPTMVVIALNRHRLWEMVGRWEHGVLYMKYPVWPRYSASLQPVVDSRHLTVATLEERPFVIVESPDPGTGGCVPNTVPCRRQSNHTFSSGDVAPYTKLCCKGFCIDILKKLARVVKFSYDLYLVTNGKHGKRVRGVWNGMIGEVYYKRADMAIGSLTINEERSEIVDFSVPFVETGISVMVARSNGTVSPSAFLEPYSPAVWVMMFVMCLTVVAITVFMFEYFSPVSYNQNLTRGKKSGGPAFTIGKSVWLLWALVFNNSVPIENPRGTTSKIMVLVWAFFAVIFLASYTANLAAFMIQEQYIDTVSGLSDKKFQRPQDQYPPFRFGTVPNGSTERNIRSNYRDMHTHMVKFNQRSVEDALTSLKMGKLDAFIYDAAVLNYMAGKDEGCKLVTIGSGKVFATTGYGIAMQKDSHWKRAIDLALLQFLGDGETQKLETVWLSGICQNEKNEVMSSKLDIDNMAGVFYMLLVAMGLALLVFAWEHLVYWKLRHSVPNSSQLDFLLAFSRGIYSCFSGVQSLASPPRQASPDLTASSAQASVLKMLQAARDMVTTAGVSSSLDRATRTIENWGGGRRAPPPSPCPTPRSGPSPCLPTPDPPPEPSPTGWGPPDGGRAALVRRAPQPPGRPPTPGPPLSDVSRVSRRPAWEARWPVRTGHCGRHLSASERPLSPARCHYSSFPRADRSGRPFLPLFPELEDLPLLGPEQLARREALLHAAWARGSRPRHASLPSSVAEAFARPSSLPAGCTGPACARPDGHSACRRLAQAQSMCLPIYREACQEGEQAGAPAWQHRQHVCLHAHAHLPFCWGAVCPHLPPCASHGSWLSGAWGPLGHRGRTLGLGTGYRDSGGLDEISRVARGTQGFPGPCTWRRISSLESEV
Experimental: (§1) Xenopus laevis oocytes were injected with cRNA encoding the NMDA receptor subunits. Two to seven days after injection, two-electrode voltage-clamp recordings were performed. Extracellular solutions were made from a solutions containing (in mM) 90 NaCl, 3 KCl, 10 HEPES, 0.5 BaCl2, 0.01 EDTA (pH 7.4 with NaOH). Voltage and current electrodes were filled with 0.3 M and 3.0 M KCl, respectively.
(§2) Potency was determined by adding increasing concentrations of test compound to saturating concentrations of glutamate (100 μM) and glycine (30 μM), and the response amplitude measured. The response in the presence of each concentration of test compound plus agonists was expressed as a percent of the response in the absence of test compound.

[2] = molecular target: GluN2B-containing NMDA receptors (Homo sapiens, UniProt Q13224); test: Two-electrode voltage-clamp recordings from Xenopus laevis oocytes, GluN2B; settings: for I10 μM/ICONTROL (mean ± SEM, %) Glu N2B: 10 μM test compound with glutamate 100 μM and glycine 30 μM, Tables 1-5; for I10 μM/ICONTROL (mean ± SEM, %) Glu N2B / maximal potentiation Glu N2B: percent of response without compound; for EC50 / IC50: glutamate 100 μM, glycine 30 μM, Hill fit; for EC50: read-out: EC50 Glu N2B; for IC50: read-out: IC50 Glu N2B
Chain of GluN2B-containing NMDA receptors (Q13224 27-1484, other chains not shown): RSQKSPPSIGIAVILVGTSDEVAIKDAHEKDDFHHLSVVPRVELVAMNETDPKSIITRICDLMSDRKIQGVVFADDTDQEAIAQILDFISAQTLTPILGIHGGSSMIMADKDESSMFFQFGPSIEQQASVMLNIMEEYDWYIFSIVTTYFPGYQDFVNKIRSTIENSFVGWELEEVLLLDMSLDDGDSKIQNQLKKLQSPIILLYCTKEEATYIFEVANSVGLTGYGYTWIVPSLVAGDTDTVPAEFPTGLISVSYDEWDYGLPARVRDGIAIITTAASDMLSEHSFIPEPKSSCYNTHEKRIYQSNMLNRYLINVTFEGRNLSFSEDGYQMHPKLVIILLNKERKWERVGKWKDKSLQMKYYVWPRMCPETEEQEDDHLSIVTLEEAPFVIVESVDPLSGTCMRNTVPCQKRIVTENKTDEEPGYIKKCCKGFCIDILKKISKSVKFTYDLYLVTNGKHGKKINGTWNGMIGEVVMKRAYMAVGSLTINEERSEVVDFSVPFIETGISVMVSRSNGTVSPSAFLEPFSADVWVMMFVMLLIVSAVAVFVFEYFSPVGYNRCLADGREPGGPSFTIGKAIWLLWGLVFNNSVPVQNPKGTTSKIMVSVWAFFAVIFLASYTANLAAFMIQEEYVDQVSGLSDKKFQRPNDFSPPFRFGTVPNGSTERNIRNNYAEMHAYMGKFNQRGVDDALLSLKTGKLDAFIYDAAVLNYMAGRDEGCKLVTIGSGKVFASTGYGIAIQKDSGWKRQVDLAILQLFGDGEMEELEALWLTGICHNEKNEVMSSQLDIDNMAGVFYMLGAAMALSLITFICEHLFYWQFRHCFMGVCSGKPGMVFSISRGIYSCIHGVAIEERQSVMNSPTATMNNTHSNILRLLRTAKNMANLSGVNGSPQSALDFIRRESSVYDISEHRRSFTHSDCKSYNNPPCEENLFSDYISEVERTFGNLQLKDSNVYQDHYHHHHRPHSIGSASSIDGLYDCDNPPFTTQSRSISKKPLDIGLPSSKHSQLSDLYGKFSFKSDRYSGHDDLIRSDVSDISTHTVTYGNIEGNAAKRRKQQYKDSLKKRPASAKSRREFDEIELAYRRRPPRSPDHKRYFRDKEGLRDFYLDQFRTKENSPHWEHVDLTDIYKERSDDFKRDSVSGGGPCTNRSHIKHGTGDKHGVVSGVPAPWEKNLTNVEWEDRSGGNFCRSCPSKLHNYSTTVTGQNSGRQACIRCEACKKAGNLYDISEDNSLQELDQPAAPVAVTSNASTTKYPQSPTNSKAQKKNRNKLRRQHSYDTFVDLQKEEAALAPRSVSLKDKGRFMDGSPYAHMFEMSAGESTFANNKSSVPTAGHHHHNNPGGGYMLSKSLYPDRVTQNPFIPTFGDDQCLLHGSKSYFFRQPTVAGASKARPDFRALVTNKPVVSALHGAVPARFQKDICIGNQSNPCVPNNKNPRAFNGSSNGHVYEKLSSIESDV
Experimental: as §1, §2

[3] = molecular target: GluN2D-containing NMDA receptors (Homo sapiens, UniProt O15399); test: Two-electrode voltage-clamp recordings from Xenopus laevis oocytes, GluN2D; settings: for I10 μM/ICONTROL (mean ± SEM, %) Glu N2D: 10 μM test compound with glutamate 100 μM and glycine 30 μM, Tables 1-5; for I10 μM/ICONTROL (mean ± SEM, %) Glu N2D / maximal potentiation Glu N2D: percent of response without compound; for EC50 / IC50: glutamate 100 μM, glycine 30 μM, Hill fit; for EC50: read-out: EC50 Glu N2D; for IC50: read-out: IC50 Glu N2D
Chain of GluN2D-containing NMDA receptors (O15399 28-1336, other chains not shown): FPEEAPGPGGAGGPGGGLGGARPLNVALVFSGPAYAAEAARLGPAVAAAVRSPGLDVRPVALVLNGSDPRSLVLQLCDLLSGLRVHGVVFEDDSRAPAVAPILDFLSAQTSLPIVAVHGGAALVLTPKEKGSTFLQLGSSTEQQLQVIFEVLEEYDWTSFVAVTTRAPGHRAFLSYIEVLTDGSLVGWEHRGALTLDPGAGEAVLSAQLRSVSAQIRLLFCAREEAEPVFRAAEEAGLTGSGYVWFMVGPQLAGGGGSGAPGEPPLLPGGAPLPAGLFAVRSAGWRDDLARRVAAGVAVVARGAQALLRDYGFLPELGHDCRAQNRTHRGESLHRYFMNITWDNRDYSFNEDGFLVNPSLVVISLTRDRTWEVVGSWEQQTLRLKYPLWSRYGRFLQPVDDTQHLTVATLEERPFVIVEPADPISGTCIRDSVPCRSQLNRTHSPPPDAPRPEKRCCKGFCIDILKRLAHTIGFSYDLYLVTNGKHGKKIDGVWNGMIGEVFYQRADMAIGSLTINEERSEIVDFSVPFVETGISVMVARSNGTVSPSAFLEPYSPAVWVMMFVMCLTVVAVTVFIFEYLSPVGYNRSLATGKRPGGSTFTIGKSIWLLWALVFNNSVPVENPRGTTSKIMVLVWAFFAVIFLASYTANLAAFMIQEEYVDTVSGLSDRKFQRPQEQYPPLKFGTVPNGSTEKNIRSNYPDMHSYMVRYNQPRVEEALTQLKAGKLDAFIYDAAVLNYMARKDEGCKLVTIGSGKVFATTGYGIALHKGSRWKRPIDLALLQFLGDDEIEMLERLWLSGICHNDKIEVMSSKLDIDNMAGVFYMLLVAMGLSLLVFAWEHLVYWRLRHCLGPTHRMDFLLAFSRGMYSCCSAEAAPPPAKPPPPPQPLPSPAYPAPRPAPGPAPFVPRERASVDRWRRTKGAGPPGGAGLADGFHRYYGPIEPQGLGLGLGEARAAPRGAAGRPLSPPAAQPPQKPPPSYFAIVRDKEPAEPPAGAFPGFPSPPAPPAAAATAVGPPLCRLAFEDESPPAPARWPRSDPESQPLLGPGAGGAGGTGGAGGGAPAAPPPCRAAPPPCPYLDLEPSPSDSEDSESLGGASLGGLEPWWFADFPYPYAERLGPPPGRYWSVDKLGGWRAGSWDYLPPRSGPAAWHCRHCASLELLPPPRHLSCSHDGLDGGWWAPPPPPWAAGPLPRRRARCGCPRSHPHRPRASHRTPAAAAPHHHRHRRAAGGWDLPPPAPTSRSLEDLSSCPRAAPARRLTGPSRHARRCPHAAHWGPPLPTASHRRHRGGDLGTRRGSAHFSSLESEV
Experimental: as §1, §2

[4] = Table 1, in brackets after EC50
[5] = Table 2, in brackets below IC50

SMILES	I10 μM/ICONTROL (mean ± SEM, %) Glu N2C [1] [%]	I10 μM/ICONTROL (mean ± SEM, %) Glu N2B [2] [%]	I10 μM/ICONTROL (mean ± SEM, %) Glu N2D [3] [%]	EC50 ([1]; Table 1) [µM]	maximal potentiation Glu N2C [1, 4] [%]	EC50 ([2]; Table 1) [µM]	maximal potentiation Glu N2B [2, 4] [%]	EC50 ([3]; Table 1) [µM]	maximal potentiation Glu N2D [3, 4] [%]	other results
Cc1sc2ncn(CC(=O)N3CCCC3)c(=O)c2c1-c1ccc(O)cc1 [4-OH—Ph / Me]	98 ± 2.3	82 ± 1.0	99 ± 2.5							
O=C(Cn1cnc2sc3c(c2c1=O)CCCC3)c1ccc([N+](=O)[O-])cc1 [Compound 4-NO2]	93 ± 2.0	94 ± 1.3	97 ± 1.1							
O=C(Cn1cnc2sc3c(c2c1=O)CCCC3)c1ccc(Cl)cc1Cl [2,4-Cl]	106 ± 4.4	91 ± 3.6	97 ± 1.8							
Cc1sc2ncn(CC(=O)N3CCCC3)c(=O)c2c1-c1ccc(N=[N+]=[N-])cc1 [4-N3—Ph / Me]	146 ± 6.4	135 ± 5.5	128 ± 2.6	54	485	54	304	50	426	
Cc1sc2ncn(CC(=O)N3CCCC3)c(=O)c2c1-c1ccc(F)cc1 [4-F—Ph / Me]				81	448	54	213	124	428	
C#CCn1cnc2sc(C)c(-c3cccc(Cl)c3)c2c1=O [—C≡CH]	98 ± 7.9	116 ± 4.0	98 ± 4.3							
Cc1sc2ncn(CC(=O)N3CCCC3)c(=O)c2c1-c1cc(F)cc(F)c1 [3,5-F—Ph / Me]	114 ± 0.9	107 ± 2.7	116 ± 4.4	132	458	96	229	204	748	
CCOC(=O)Cn1cnc2sc(C)c(-c3cccc(Cl)c3)c2c1=O [1 / 3-Cl—Ph / Me / OEt]	141 ± 7.0	127 ± 4.6	136 ± 3.0							IC50 ([1]; Table 2): 26 µM; maximal potentiation Glu N2C [1, 5]: (390) %; IC50 ([2]; Table 2): 17 µM; maximal potentiation Glu N2B [2, 5]: (148) %; IC50 ([3]; Table 2): 16 µM; maximal potentiation Glu N2D [3, 5]: (245) %
COc1cccc(C(=O)Cn2cnc3sc(C)c(-c4cccc(I)c4)c3c2=O)c1 [1 / 3-I—Ph / Me / 3-OMe—Ph]	107 ± 4.9	107 ± 3.0	99 ± 4.3							
CCSC(=O)Cn1cnc2sc(C)c(-c3cccc(Cl)c3)c2c1=O [1 / 3-Cl—Ph / Me / SEt]	95 ± 2.8	95 ± 0.9	90 ± 1.3							
Cc1sc2ncn(CC(=O)N3CCC[C@H]3C(=O)O)c(=O)c2c1-c1ccc(Cl)cc1 [1 / 4-Cl—Ph / Me / —Nproline (S)]	104 ± 2.3	89 ± 1.7	97 ± 1.9							
Cc1sc2ncn(CC(=O)N3CCCC3)c(=O)c2c1-c1cc(Br)cc(Br)c1 [3,5-Br—Ph / Me]	195 ± 6.9	156 ± 5.2	230 ± 13.5	2.2	195	1.08	143	3.86	202	
Cc1sc2ncn(CC(=O)N3CCCC3)c(=O)c2c1-c1ccc(Cl)cc1 [1 / 4-Cl—Ph / Me / —Npyrrolidine]										IC50 ([1]; Table 2): 15 µM; maximal potentiation Glu N2C [1, 5]: (347) %; IC50 ([2]; Table 2): 11 µM; maximal potentiation Glu N2B [2, 5]: (223) %; IC50 ([3]; Table 2): 23 µM; maximal potentiation Glu N2D [3, 5]: (381) %
COC(=O)[C@@H]1CCCN1C(=O)Cn1cnc2sc(C)c(-c3ccc(Br)cc3)c2c1=O	159 ± 9.5	109 ± 4.9	147 ± 12.7							
COCCn1cc(Cn2cnc3sc(C)c(-c4cccc(Cl)c4)c3c2=O)nn1	93 ± 2.2	99 ± 1.9	84 ± 3.4							
Cc1sc2ncn(Cc3cnnn3CCC3OCCCO3)c(=O)c2c1-c1cccc(Cl)c1	92 ± 0.8	89 ± 2.5	91 ± 1.3							

Continued, in another order:

I10 μM/ICONTROL (mean ± SEM, %) Glu N2C [1] [%]	I10 μM/ICONTROL (mean ± SEM, %) Glu N2B [2] [%]	I10 μM/ICONTROL (mean ± SEM, %) Glu N2D [3] [%]	EC50 ([1]; Table 1) [µM]	maximal potentiation Glu N2C [1, 4] [%]	EC50 ([2]; Table 1) [µM]	maximal potentiation Glu N2B [2, 4] [%]	EC50 ([3]; Table 1) [µM]	maximal potentiation Glu N2D [3, 4] [%]	SMILES	other results
93 ± 1.4	93 ± 1.2	89 ± 1.4							Cc1sc2ncn(CC(=O)O)c(=O)c2c1-c1cccc(Cl)c1 [1 / 3-Cl—Ph / Me / OH]	
91 ± 1.1	104 ± 3.6	88 ± 2.4							Cc1sc2ncn(CCC(=O)Oc3ccccc3)c(=O)c2c1-c1cccc(Cl)c1 [2 / 3-Cl—Ph / Me / OPh]	
109 ± 3.1	92 ± 1.7	105 ± 1.8							Cc1sc2ncn(CC(=O)N(C)C)c(=O)c2c1-c1ccc(Br)cc1 [1 / 4-Br—Ph / Me / —N(Me)2]	
99 ± 2.5	102 ± 4.6	96 ± 2.6							CSc1ccc(-c2csc3ncn(CC(=O)N4CCCC4)c(=O)c23)cc1 [4-MeS—Ph / H]	
110 ± 5.9	96 ± 2.6	89 ± 1.6							Cc1sc2ncn(CC(=O)Oc3ccccc3)c(=O)c2c1-c1cccc(Cl)c1 [1 / 3-Cl—Ph / Me / OPh]	
401 ± 36.4	246 ± 14.9	364 ± 31.6	7.6	622	3.7	249	15	1068	Cc1sc2ncn(CC(=O)N3CCCC3)c(=O)c2c1-c1cccc(I)c1 [3-I—Ph / Me]	
161 ± 10.9	139 ± 3.9	133 ± 3.1							Cc1sc2ncn(CC(=O)c3ccccc3)c(=O)c2c1-c1cccc(I)c1 [1 / 3-I—Ph / Me / Ph]	IC50 ([1]; Table 2): 15 µM; maximal potentiation Glu N2C [1, 5]: (273) %; IC50 ([2]; Table 2): 7.9 µM; maximal potentiation Glu N2B [2, 5]: (169) %; IC50 ([3]; Table 2): 41 µM; maximal potentiation Glu N2D [3, 5]: (305) %
95 ± 2.1	93 ± 2.0	94 ± 1.4							Cc1sc2ncn(CC(=O)N3CCCC3)c(=O)c2c1-c1ccccc1C(F)(F)F [2-CF3—Ph / Me]	
166 ± 7.2	134 ± 6.7	147 ± 6.3	102	918	88	353	134	730	[N-]=[N+]=Nc1ccc(-c2csc3ncn(CC(=O)N4CCCC4)c(=O)c23)cc1 [4-N3—Ph / H]	
94 ± 1.94	84 ± 5.2	94 ± 1.1							COc1ccc(C(=O)Cn2cnc3sc(C)c(-c4cccc(I)c4)c3c2=O)cc1 [1 / 3-I—Ph / Me / 4-OMe—Ph]	
			27	267	7.9	192	18	229	Cc1ccc(-c2c(C)sc3ncn(CC(=O)N4CCCC4)c(=O)c23)cc1C [3,4-Me—Ph / Me]	
185 ± 11.4	176 ± 6.2	165 ± 3.4	26	475	11.5	275	48	580	Cc1sc2ncn(CC(=O)N3CCCC3)c(=O)c2c1-c1ccc2c(c1)CCC2 [3,4-(CH2)3—Ph / Me]	
368 ± 29.0	211 ± 11.3	480 ± 74.3	13	748	6	282	25	1735	Cc1sc2ncn(CC(=O)N3CCCC3)c(=O)c2c1-c1cccc(C(F)(F)F)c1 [3-CF3—Ph / Me]	
